# Reference: paper PMC11945475, “Nasal Administration of a Nanoemulsion Based on Methyl Ferulate and Eugenol Encapsulated in Chitosan Oleate: Uptake Studies in the Central Nervous System” (Pharmaceutics, 2025)
# Like-named read-outs stand apart in the source and are kept apart here.
# Assays:
# [1] = Encapsulation efficiency (ultrafiltration method, HPLC); format: physicochemical; settings: CS-OA NE, ultrafiltration 50K MWCO
# Experimental: EE% was calculated by Equation (2):(2) EE%= total drug amount in CS-OA NE - drug amount in external phase/total drug amount in CS-OA NE × 100
# [2] = In vitro drug release from CS-OA NE (dialysis tubing); format: physicochemical; settings: PBS pH 6.2, 32 °C
# Experimental: The membrane was immersed in 50 mL of PBS (pH 6.2) at 32 ± 2 °C. The release medium was kept under constant magnetic stirring. Aliquots (1 mL) were withdrawn at predetermined intervals ranging from 15 min to 4 h and replaced with an equal volume of fresh PBS. The Fer-Me and eugenol released were quantified using the HPLC method.
# in vivo = settings: rat; for AUC / Cmax / Tmax: nasal CS-OA NE, Fer-Me 0.4 mg/kg and eugenol 0.8 mg/kg
# Experimental: Fer-Me and eugenol were nasally co-administered as loaded in CS-OA NE to evaluate their concentration–time profiles in male Sprague-Dawley rats’ (200–250 g body weight; Charles River laboratories, Calco, Italy) bloodstream and CSF. The results were compared with those obtained by the rat intravenous administrations of Fer-Me (10 mg/kg; present study), and 20 mg/kg of eugenol. The sample size (4 rats/group) has been chosen based on our previous studies. The experimental procedures were approved by the Italian Ministry of Health and were performed in accordance with the European Communities Council Directive of September 2010 (2010/63/EU). According to the ARRIVE guidelines, all possible efforts were made to minimize animal pain and discomfort and to reduce the number of experimental subjects.
# Fer-Me and eugenol were nasally co-administered to rats at the doses of 0.4 mg/kg (about 0.1 mg/rat) and 0.8 mg/kg (about 0.2 mg/rat), respectively, as encapsulated in CS-OA NE (Fer-Me content about 1 mg/mL; eugenol content about 2 mg/mL). A group of four rats anesthetized and laid on their backs (weighing approximately 250 g) received CS-OA NE after being fasted for 12 h. In particular, each rat received 50 μL of CS-OA NE formulation in each nostril. The nasal administration was carried out using a semiautomatic pipette connected to a short polyethylene tubing, which was inserted about 0.6 to 0.7 cm into each nostril. Following the administration, blood samples (100 μL) were collected at predetermined time points, along with CSF samples (30 μL). The blood samples (n = 4 for timepoint) were immediately mixed with 200 μL of ice-cold CH3CN and then 100 μL of internal standard (100 μM BNZ in CH3CN) was added. These samples were centrifuged at 12,500× g for 5 min. About 300 μL of the supernatant was then withdrawn and centrifuged again. Finally, 10 μL of the resultant sample was analyzed using HPLC for the quantification of Fer-Me and eugenol.
# The HPLC apparatus was the same used for the uptake experiments with RPMI 2650 cells (Section 2.3.3). […] Calibration curves of peak areas versus concentration in the range 0.5 to 10 μM for Fer-Me (0.10 to 2.08 μg/mL), and eugenol (0.08 to 1.64 μg/mL), obtained dissolving the compounds in simulated CSF, were linear (n = 8, r ≥ 0.996, p < 0.0001). […] Therefore, the concentrations of these compounds determined in whole blood were referred to as the peak area ratio with respect to the internal standard BNZ. Eight different concentrations in rat whole blood at 4 °C, ranging from 0.5 to 50 μM for Fer-Me (0.10 to 10.41 μg/mL) and eugenol (0.08 to 8.21 μg/mL) were used to generate calibration curves in this biological system, which were linear (n = 8, r ≥ 0.990, p < 0.001).
# Fer-Me in vivo half-life (t1/2) in the rats’ bloodstream was determined using nonlinear regression (exponential decay) of concentration values quantified at appropriate time intervals after infusion, further validated by applying linear regression to the semi-logarithmic plot. The area under the concentration–time curves (AUC, μg∙mL^−1∙min) in rat bloodstreams or CSF, following Fer-Me intravenous administration or CA-OA NE nasal administration, were calculated using the trapezoidal method.
# Following the nasal administration of CS-OA NE, the absolute bioavailability (F) values of Fer-Me and eugenol were calculated as the ratio of the nasal AUC to the intravenous AUC values measured in the bloodstream, normalized to the respective doses, according to Equation (3):(3) F=AUCnasal/AUCIV·doseIV/dosenasal GraphPad Prism version 7.0 (GraphPad Software, San Diego, CA, USA) was used for all calculations.
# [3] = cited from earlier work
# [4] = cited from earlier work; remark: listed apart in the source
# several cell lines = settings: cited from earlier work
# [5] = Intravenous administration of Fer-Me to rats (bloodstream and CSF pharmacokinetics); format: in vivo, rat; settings: rat, in vivo, iv
# Experimental: Charles River laboratories, Calco, Italy) bloodstream and CSF. […] The sample size (4 rats/group) has been chosen based on our previous studies. The experimental procedures were approved by the Italian Ministry of Health and were performed in accordance with the European Communities Council Directive of September 2010 (2010/63/EU). According to the ARRIVE guidelines, all possible efforts were made to minimize animal pain and discomfort and to reduce the number of experimental subjects. Fer-Me solution (2.5 mg/mL final concentration, 15% v/v EtOH content) was prepared by first dissolving Fer-Me in EtOH and then adding this latter solution to a saline solution (0.9% NaCl). […] The aqueous phase was then subjected to a double extraction with 1 mL of H2O-saturated ethyl acetate. […] Data were acquired and processed through CLASS-VP Software; version 7.2.1 (Shimadzu Italia, Milan, Italy). The mobile phase was eluted under isocratic conditions (0.8 mL/min) and was constituted by a mixture of acetic acid in H2O (0.4% v/v) and MeOH, whose ratio was 40:60 (v/v). The UV-Vis detector was set at 320 nm for the detection of Fer-Me, its hydrolysis product Fer, and Caf-Me, which was utilized as an internal standard during blood sample extraction. […] The average recoveries were approximately 40% for Fer and 58% for Fer-Me. For this reason, the concentrations of these compounds were determined by their peak area ratio with respect to the internal standard (Caf-Me). […] Fer-Me in vivo half-life (t1/2) in the rats' bloodstream was determined using nonlinear regression (exponential decay) of concentration values quantified at appropriate time intervals after infusion, further validated by applying linear regression to the semi-logarithmic plot.
smiles,measurement,setting,value
C=CCc1ccc(O)c(OC)c1 [eugenol],EE% (encapsulation efficiency),[1],87.9%
same,in vitro release from CS-OA NE,[2]; 30 min,25.2%
same,in vitro release from CS-OA NE,[2]; 240 min,97.5%
same,bioavailability,"in vivo; male, Sprague-Dawley, 0.8 mg/kg, nasal CS-OA NE vs intravenous, dose-normalized, read-out: absolute bioavailability F (bloodstream)",95%
same,time at which CSF concentration decreased to zero (permanence in the CSF),"in vivo; male, Sprague-Dawley",120 min
same,time within which plasma concentration decreased to zero,"in vivo; male, Sprague-Dawley",≤ 90 min
same,AUC,"in vivo; male, Sprague-Dawley, inhaled or intranasal, 0.8 mg/kg, read-out: AUC in CSF (converted)",1060 ng·h/mL
same,AUC,"in vivo; male, Sprague-Dawley, inhaled or intranasal, 0.8 mg/kg, read-out: AUC in the bloodstream (converted)",111 ng·h/mL
same,Cmax,"in vivo; male, Sprague-Dawley, inhaled or intranasal, 0.8 mg/kg, read-out: Cmax in CSF",1050 ± 80 ng/mL
same,Cmax,"in vivo; male, Sprague-Dawley, inhaled or intranasal, 0.8 mg/kg, read-out: Cmax in the bloodstream",150 ± 10 ng/mL
same,Tmax,"in vivo; male, Sprague-Dawley, inhaled or intranasal, 0.8 mg/kg, read-out: Tmax in CSF (converted)",20 min
same,Tmax,"in vivo; male, Sprague-Dawley, inhaled or intranasal, 0.8 mg/kg, read-out: Tmax in the bloodstream (converted)",40 min
same,permanence in the rat CSF,[3]; in vivo,50 min
same,AUC in CSF,"[3]; rat, eugenol 20 mg/kg i.v.",56.1 ± 4.2 µg·min/mL
same,Tmax in CSF,"[3]; rat, eugenol 20 mg/kg i.v.",10 min
same,t1/2 in the bloodstream,"[3]; rat, in vivo, iv, 20 mg/kg",about 20 min
same,absolute bioavailability,[4]; eugenol oral administration,about 4%
same,AUC in CSF,"[4]; rat, oral dose of 500 mg/kg of eugenol",30.97 ± 2.18 µg·min/mL
same,concentration known to induce cytotoxicity,several cell lines,5000 µM
"COC(=O)/C=C/c1ccc(O)c(OC)c1 [Fer-Me, methyl ferulate]",EE% (encapsulation efficiency),[1],90.2%
same,in vitro release from CS-OA NE,[2]; 30 min,24.9%
same,in vitro release from CS-OA NE,[2]; 240 min,96.9%
same,Tmax in CSF,[5],20 min
same,kinetic elimination constant (kel),[5]; 10 mg/kg,0.069 ± 0.003 min⁻¹
same,CSF bioavailability (AUC) after nasal CS-OA NE relative to intravenous administration,in vivo,about 30 times
same,absolute bioavailability F (bloodstream),in vivo,56%
same,time at which CSF concentration decreased to zero (permanence in the CSF),in vivo,120 min
same,time within which plasma concentration decreased to zero,in vivo,≤ 90 min
same,Tmax in CSF,in vivo; inhaled or intranasal,20 min
same,Tmax in the bloodstream,in vivo; inhaled or intranasal,40 min
